Source: ChEMBL document CHEMBL1687830, “Evaluation of ceftazidime and NXL104 in two murine models of infection due to KPC-producing Klebsiella pneumoniae” (2011)
≈ marks a conversion by molar mass, not a printed value.

Tests used:
Format in all cases: functional
[1] = tested on: Klebsiella pneumoniae; experiment: Antimicrobial activity against Klebsiella pneumoniae ATCC 13883 infected in sc dosed CD-1 mouse septicemia infection model by acute lethal septicemia analysis; conditions: ATCC 13883, sc
[2] = tested on: Klebsiella pneumoniae; experiment: Antimicrobial activity against carbapenemases KPC-producing Klebsiella pneumoniae VA-406 infected in sc dosed CD-1 mouse in presence of 2 ug/ml NXL104 beta-lactamase inhibitor
[3] = tested on: Klebsiella pneumoniae; experiment: Antimicrobial activity against carbapenemases KPC-producing Klebsiella pneumoniae VA-406 infected in CD-1 mouse thigh infection model assessed as change in log10 CFU reduction per thigh treated 1.5 hr post infection at >=64:16 mg/kg, sc compound to NXL104 beta-lactamase inhibitor ratio after 24 hrs by acute lethal septicemia analysis
[4] = tested on: Klebsiella pneumoniae; experiment: Antimicrobial activity against carbapenemases KPC-producing Klebsiella pneumoniae VA-361 infected in CD-1 mouse thigh infection model assessed as change in log10 CFU reduction per thigh treated 1.5 hr post infection at >=128:32 mg/kg, sc compound to NXL104 beta-lactamase inhibitor ratio after 24 hrs by acute lethal septicemia analysis (reference value: 8.93 log10CFU/thigh)
[5] = tested on: Klebsiella pneumoniae; experiment: Antimicrobial activity against carbapenemases KPC-producing Klebsiella pneumoniae VA-361 infected in sc dosed CD-1 mouse
[6] = tested on: Klebsiella pneumoniae; experiment: Antimicrobial activity against carbapenemases KPC-producing Klebsiella pneumoniae VA-406 infected in sc dosed CD-1 mouse in presence of 4 ug/ml Tazobactam beta-lactamase inhibitor
[7] = tested on: Klebsiella pneumoniae; experiment: Antimicrobial activity against carbapenemases KPC-producing Klebsiella pneumoniae VA-361 infected in sc dosed CD-1 mouse septicemia infection model at 8:1 compound to NXL104 beta-lactamase inhibitor ratio by acute lethal septicemia analysis; conditions: VA-361, sc
[8] = tested on: Klebsiella pneumoniae; experiment: Antimicrobial activity against Klebsiella pneumoniae ATCC 13883 infected in sc dosed CD-1 mouse septicemia infection model at 2:1 compound to NXL104 beta-lactamase inhibitor ratio by acute lethal septicemia analysis; conditions: ATCC 13883, sc
[9] = tested on: Klebsiella pneumoniae; experiment: Antimicrobial activity against Klebsiella pneumoniae ATCC 13883 infected in sc dosed CD-1 mouse septicemia infection model at 8:1 compound to NXL104 beta-lactamase inhibitor ratio by acute lethal septicemia analysis; conditions: ATCC 13883, sc
[10] = tested on: Klebsiella pneumoniae; experiment: Antimicrobial activity against carbapenemases KPC-producing Klebsiella pneumoniae VA-406 infected in sc dosed CD-1 mouse septicemia infection model by acute lethal septicemia analysis; conditions: VA-406, sc
[11] = tested on: Klebsiella pneumoniae; experiment: Antimicrobial activity against carbapenemases KPC-producing Klebsiella pneumoniae VA-361 infected in sc dosed CD-1 mouse in presence of 4 ug/ml Tazobactam beta-lactamase inhibitor
[12] = tested on: Klebsiella pneumoniae; experiment: Antimicrobial activity against carbapenemases KPC-producing Klebsiella pneumoniae VA-406 infected in sc dosed CD-1 mouse septicemia infection model at 2:1 compound to NXL104 beta-lactamase inhibitor ratio by acute lethal septicemia analysis; conditions: VA-406, sc
[13] = tested on: Klebsiella pneumoniae; experiment: Antimicrobial activity against carbapenemases KPC-producing Klebsiella pneumoniae VA-361 infected in CD-1 mouse thigh infection model assessed as change in log10 CFU reduction per thigh treated 1.5 hr post infection at >=64:16 mg/kg, sc compound to NXL104 beta-lactamase inhibitor ratio after 24 hrs by acute lethal septicemia analysis (reference value: 8.93 log10CFU/thigh)
[14] = tested on: Klebsiella pneumoniae; experiment: Antimicrobial activity against carbapenemases KPC-producing Klebsiella pneumoniae VA-406 infected in sc dosed CD-1 mouse in presence of 4 ug/ml cavulanate beta-lactamase inhibitor
[15] = tested on: Klebsiella pneumoniae; experiment: Antimicrobial activity against carbapenemases KPC-producing Klebsiella pneumoniae VA-406 infected in CD-1 mouse thigh infection model assessed as change in log10 CFU reduction per thigh treated 1.5 hr post infection at >=16:4 mg/kg, sc compound to NXL104 beta-lactamase inhibitor ratio after 24 hrs by acute lethal septicemia analysis (reference value: 8.67 log10CFU/thigh)
[16] = tested on: Klebsiella pneumoniae; experiment: Antimicrobial activity against carbapenemases KPC-producing Klebsiella pneumoniae VA-406 infected in CD-1 mouse thigh infection model assessed as change in log10 CFU reduction per thigh treated 1.5 hr post infection at >=1024:256 mg/kg, sc compound to NXL104 beta-lactamase inhibitor ratio after 24 hrs by acute lethal septicemia analysis (reference value: 8.67 log10CFU/thigh)
[17] = tested on: Klebsiella pneumoniae; experiment: Antimicrobial activity against carbapenemases KPC-producing Klebsiella pneumoniae VA-361 infected in CD-1 mouse thigh infection model assessed as change in log10 CFU reduction per thigh treated 1.5 hr post infection at >=256:64 mg/kg, sc compound to NXL104 beta-lactamase inhibitor ratio after 24 hrs by acute lethal septicemia analysis (reference value: 8.93 log10CFU/thigh)
[18] = tested on: Klebsiella pneumoniae; experiment: Antimicrobial activity against carbapenemases KPC-producing Klebsiella pneumoniae VA-406 infected in CD-1 mouse thigh infection model assessed as change in log10 CFU reduction per thigh treated 1.5 hr post infection at >=256:64 mg/kg, sc compound to NXL104 beta-lactamase inhibitor ratio after 24 hrs by acute lethal septicemia analysis (reference value: 8.67 log10CFU/thigh)
[19] = tested on: Klebsiella pneumoniae; experiment: Antimicrobial activity against carbapenemases KPC-producing Klebsiella pneumoniae VA-406 infected in sc dosed CD-1 mouse septicemia infection model at 8:1 compound to NXL104 beta-lactamase inhibitor ratio by acute lethal septicemia analysis; conditions: VA-406, sc
[20] = tested on: Klebsiella pneumoniae; experiment: Antimicrobial activity against carbapenemases KPC-producing Klebsiella pneumoniae VA-361 infected in CD-1 mouse thigh infection model assessed as change in log10 CFU reduction per thigh treated 1.5 hr post infection at >=32:8 mg/kg, sc compound to NXL104 beta-lactamase inhibitor ratio after 24 hrs by acute lethal septicemia analysis (reference value: 8.93 log10CFU/thigh)
[21] = tested on: Klebsiella pneumoniae; experiment: Antimicrobial activity against carbapenemases KPC-producing Klebsiella pneumoniae VA-406 infected in sc dosed CD-1 mouse
[22] = tested on: Klebsiella pneumoniae; experiment: Antimicrobial activity against carbapenemases KPC-producing Klebsiella pneumoniae VA-406 infected in CD-1 mouse thigh infection model assessed as change in log10 CFU reduction per thigh treated 1.5 hr post infection at >=32:8 mg/kg, sc compound to NXL104 beta-lactamase inhibitor ratio after 24 hrs by acute lethal septicemia analysis (reference value: 8.67 log10CFU/thigh)
[23] = tested on: Klebsiella pneumoniae; experiment: Antimicrobial activity against carbapenemases KPC-producing Klebsiella pneumoniae VA-406 infected in sc dosed CD-1 mouse septicemia infection model at 16:1 compound to NXL104 beta-lactamase inhibitor ratio by acute lethal septicemia analysis; conditions: VA-406, sc
[24] = tested on: Klebsiella pneumoniae; experiment: Antimicrobial activity against carbapenemases KPC-producing Klebsiella pneumoniae VA-406 infected in CD-1 mouse thigh infection model assessed as change in log10 CFU reduction per thigh treated 1.5 hr post infection at >=128:32 mg/kg, sc compound to NXL104 beta-lactamase inhibitor ratio after 24 hrs by acute lethal septicemia analysis (reference value: 8.67 log10CFU/thigh)
[25] = tested on: Klebsiella pneumoniae; experiment: Antimicrobial activity against carbapenemases KPC-producing Klebsiella pneumoniae VA-361 infected in sc dosed CD-1 mouse septicemia infection model at 16:1 compound to NXL104 beta-lactamase inhibitor ratio by acute lethal septicemia analysis; conditions: VA-361, sc

CC(C)(O/N=C(\C(=O)N[C@@H]1C(=O)N2C(C(=O)[O-])=C(C[n+]3ccccc3)CS[C@H]12)c1csc(N)n1)C(=O)O [CEFTAZIDIME]
ED50 [1]: 1.9 mg/kg | MIC [2]: 2 µg/mL | log10cfu [3]: 2.06 | log10cfu [4]: 1.88 | MIC [5]: 256 µg/mL (≈ 468 µM) | MIC [6]: 256 µg/mL | ED50 [7]: 16.9 mg/kg | ED50 [8]: 1 mg/kg | ED50 [9]: 0.62 mg/kg | ED50 [10]: 709 mg/kg | MIC [11]: 128 µg/mL | ED50 [12]: 3.5 mg/kg | log10cfu [13]: 2.19 | MIC [14]: 256 µg/mL | log10cfu [15]: 2.69 | log10cfu [16]: -1.59 | log10cfu [17]: -0.85 | log10cfu [18]: -1.02 | ED50 [19]: 7.2 mg/kg | log10cfu [20]: 2.32 | MIC [21]: ≥ 512 µg/mL | log10cfu [22]: 2.33 | ED50 [23]: 12.1 mg/kg | log10cfu [24]: -0.46 | ED50 [25]: 29.5 mg/kg
